{
  "source": "patent US11123391B2",
  "about": "“Nasal composition” (INQPHARM GROUP SDN BHD, priority 2015, dated 2021)",
  "tested_on": "HMC1 cells",
  "test": "In vitro testing of mast cell line HMC-1: histamine release after IgE/anti-IgE, ELISA of supernatant",
  "type": "cell-based",
  "conditions": "calcium ionophore 100 μg/ml, 30 min; for histamine production / release: no IgE/anti-IgE",
  "protocol": "Mast cell lines, i.e. HMC1 cells (provided by Dr Joseph H. Butterfield; Mayo Clinic, Rochester, Minn., USA), were cultured in Isocove's Modified Dulbecco's Medium (IMDM) containing 10% Fetal Bovine Serum (FBS), 2 mM L-glutamine, 50 μM 2-mercaptoethanol, 100 U/mL penicillin and 100 μg/mL streptomycin. Cells were maintained at 37° C. in 5% CO2 in a humidified atmosphere.\nPercentage of living cells was determined by trypan blue staining. A 1:10 dilution with 50 μl cell suspension and 450 μl trypan blue was prepared and the number of living and dead cells was counted in a hemocytometer. 10^6 living cells were transferred into safe-lock Eppendorf tubes. Cell suspensions were centrifuged (200 g, 5 min) and supernatant was discarded.\nThe effect of perilla oil, sesame oil and a combination of perilla oil and sesame oil (in a combination ratio of 1:1) in the vehicle Kolliphor ELP (polyoxyl-35 hydrogenated castor oil) was determined. The positive control Cromolyn in phosphate buffer saline (PBS), the vehicles PBS and ELP, and calcium ionophore A23187 were also tested as controls.\nAfter adding 100 μl IgE (100 ng/ml in PBS/ELP) to the cell pellets, cells were incubated for 12 hours over night, at 37° C. Cells were than incubated for 2 hours, at 37° C. with different concentrations of compounds. After centrifugation (200 g, 5 min), supernatant was discarded and cell pellet was again incubated for 1 hour, at 37° C. with 100 μl anti-IgE (1 μg/ml in PBS/ELP). For the final incubation time of 6 hours, at 37° C., 300 μl HMC1 media was added. Cells were again centrifuged (200 g, 5 min) and supernatant was collected and stored as 300 μl aliquots at −20° C. for ELISA measurements. Cell pellets were resuspended in 100 μl HMC1 media for determining cell viability.\nThe procedure was slightly different when the compound testing was calcium ionophore A23187. […]\nThe concentration of histamine in the collected supernatant was determined by ELISA, using a kit obtained from IBL International according to the manufacturer's guidelines. Each sample was measured twice. […]",
  "data": [
    {"compound": "CNc1ccc2oc(C[C@H]3O[C@@]4(CC[C@H]3C)O[C@H]([C@H](C)C(=O)c3ccc[nH]3)[C@H](C)C[C@H]4C)nc2c1C(=O)O", "note": "[calcium ionophore, calcium ionophore A23187]", "values": [
      {"measurement": "effect on the cells (cell viability)", "result": "cells were completely destroyed"},
      {"measurement": "histamine production / release", "result": "highest values of histamine production"},
      {"measurement": "histamine production / release", "setting": "listed as Calcium ionophore", "result": "released all histamine"}
    ]}
  ]
}
